Test results from patent US20240325747A1, “COMPOSITIONS AND METHODS OF A CONCOMITANT THERAPY OF ALTERNATING ELECTRIC FIELDS AND N-CADHERIN INHIBITOR” (NOVOCURE GMBH, priority 2023, published 2024).

What was measured:
[1] = test system: angiogenesis; details: cited from earlier work
[2] = test system: tumor microenvironment; details: systemic ADH-1; cited from earlier work
[3] = test system: A2780 cells; assay: Calcium switch assay, immunoblot of AKT phosphorylation (Ser473) after TTFields; format: cell-based; details: A2780, TTFields 200 kHz 72 h then 4 mM EGTA; compared with TTFields-treated cells under normal calcium levels
Experimental: (§1) FIGS. 10A-10E show N-cadherin engagement functions upstream of AKT activation during long-term TTFields application. (FIG. 10A) H1299 cells were either left untreated or treated with TTFields (150 kHz) for 72 h. Left panel: Confocal fluorescence microscopy images of N-cadherin in control and TTFields-treated cells are shown. Blue, DAPI-stained DNA; Red, F-actin; Green, N-cadherin; Scale bars, 20 μm. Right panel: Quantification of N-cadherin expression, shown as mean±SEM. *p<0.05; unpaired t-test: N≥2. (FIGS. 10B, 10C) A2780 and H1299 cells were treated with TTFields (200 kHz and 150 kHz, respectively) for 72 h and then: left untreated (No EGTA), treated with 4 mM EGTA (EGTA), or treated with 4 mM EGTA subsequently replaced with serum-free calcium-containing medium (EGTA/Ca^+2). (FIG. 10B) Representative phase-contrast images. Scale bars, 100 μm. (FIG. 10C) Upper panels: Samples were immunoblotted for AKT, pAKT (Ser473), and GAPDH. […]
(§2) NSCLC cells (FIGS. 4—H1299 cells) or ovarian cancer cells (FIGS. 5—A2780 cells) treated with TTFields for 72 hours were incubated with […] EGTA to disrupt cell-cell contacts. […] Relative protein densities of Akt on the Ser-473 ratio were determined. […]

[4] = test system: H1299 cells; assay: as above; format: cell-based; details: H1299, TTFields 150 kHz 72 h then 4 mM EGTA; compared with TTFields-treated cells under normal calcium levels
Experimental: as §1, §2

[5] = test system: A2780 cells; assay: Calcium switch assay, cell morphology (phase-contrast); format: cell-based; details: A2780, control and TTFields (72 h) conditions, 4 mM EGTA
Experimental: as §1, with “GAPDH. Lower panels: Densitometric analysis (arbitrary units normalized to the expression of the housekeeping protein GAPDH), is shown as mean±SEM. *p<0.05, and *** p<0.001; one-way ANOVA followed by Tukey's post hoc test: N≥2.” for “GAPDH.”

[6] = test system: H1299 cells; assay: as above; format: cell-based; details: H1299, control and TTFields (72 h) conditions, 4 mM EGTA
Experimental: as §1, with “GAPDH. Lower panels: Densitometric analysis (arbitrary units normalized to the expression of the housekeeping protein GAPDH), is shown as mean±SEM. *p<0.05, and *** p<0.001; one-way ANOVA followed by Tukey's post hoc test: N≥2.” for “GAPDH.”

Molecule	Angiogenesis [1]	Tumor growth [2]	AKT phosphorylation (Ser473) [3]	AKT phosphorylation (Ser473) [4]	Cell morphology [5]	Cell morphology [6]
N-Ac-CHAVC-NH2 (also: cyclic, type not given here) [ADH-1, cyclic peptide N-cadherin antagonist (CHAVC]	inhibit angiogenesis	modulate tumor growth through activation of the AKT pathway				
O=C(O)CN(CCOCCOCCN(CC(=O)O)CC(=O)O)CC(=O)O [EGTA, ethylene glycol-bis (β-aminoethyl ether)-N,N,N′,N′-tetraacetic acid]			reduced phosphorylation of AKT	reduced phosphorylation of AKT	rounded morphology	rounded morphology
